The text below walks through data of article PMC11672299, “Conjugation of Polycationic Peptides Extends the Efficacy Spectrum of β‐Lactam Antibiotics” (Advanced Science, 2024).

Peptide text beside a SMILES is read from it. * marks the point of attachment. X1 = CC(C)(O/N=C(\C(=O)N[C@@H]1C(=O)N2C(C(=O)[O-])=C(C[n+]3ccccc3)CS[C@H]12)c1csc(N)n1)C(=O)NCCCCCCN1C(=O)CC(*)C1=O Where only a bound is given, the exact number is not on record here.

One assay has as its system B. subtilis DSM 10. Description: microbe, parasite or virus in culture. It is filed as cell-based. As to conditions: DSM 10, 20 h. Here is the method: (§1) The minimum inhibitory concentration (MIC) of the β‐lactam–peptide conjugates was determined by broth microdilution as previously described.^[ [17] ^] Briefly, in cation‐adjusted MHB II medium, a twofold serial dilution of the compounds was prepared in 96‐well round‐bottom polystyrene or polypropylene microtiter plates with each well containing 50 µL. The plates were inoculated with 50 µL bacterial suspension and the final inoculum, in a total volume of 100 µL, contained 5 × 10^5 CFU mL^−1. The microplates were incubated for 20 h at 37 ± 1 °C. The lowest concentration preventing visible bacterial growth was considered the MIC value. For susceptibility testing of combinations of β‐lactamase‐inhibitors with either a β‐lactam antibiotic or a β‐lactam–peptide conjugate, fixed concentrations of the inhibitors according to the EUCAST (European Committee on Antimicrobial Susceptibility Testing) guidelines (clavulanic acid = 2 mg L^−1, avibactam = 4 mg L^−1) were used.

The target in the next assay is T1, PBP2A (Bacillus subtilis, UniProt P54488).
T1 construct: endogenous in cells; host or cells: B. subtilis DSM 10, extracted membrane protein fraction
Description: Gel‐based PBP affinity assay (Bocillin FL competition). It is filed as binding. As to conditions: B. subtilis membrane fractions, competition with Bocillin FL penicillin; compared with parent β‐lactam. Here is the method:
(§2) B. subtilis DSM 10 and E. faecalis ATCC 51 299 (equal to DSM 12 956) membrane protein fractions were extracted according to the protocol of Dean et al. with minor modifications.^[ [34] ^] From a growing overnight bacterial culture, 3 L of LB (Luria‐Bertani) medium or TSB (tryptic soy broth) were inoculated with B. subtilis DSM 10 and E. faecalis ATCC 51 299, respectively, to obtain an OD600 = 0.3. The cultures were grown to an OD600 = 0.6–0.8 while shaking at 37 °C and cells were harvested by centrifugation at 4000 g for 30 min at 4 °C. The resulting pellet was washed twice with pre‐cooled PBS and resuspended in 30 mL of ice‐cooled PBS. The suspension was sonicated on ice (10 cycles of 30 s at 50% power for B. subtilis; 12 cycles of 30 s at 80% power for E. faecalis; 2 min intervals between cycles) using an Omni Ruptor 4000 ultrasonic homogenizer (Omni International, Kennesaw, GA, USA). Afterwards, the suspension was centrifuged at 7000 g for 10 min at 4 °C. The clear supernatant was transferred into a 50 mL polypropylene tube and centrifuged in a Beckman Coulter centrifuge equipped with a JA‐20 fixed‐angle rotor (Beckman Coulter, Krefeld, Germany) at 50 000 g for 1 h at 4 °C. The resulting pellet was washed with ice‐cold PBS and centrifuged a second time. The pellet was resuspended in 2 mL PBS and aliquots were stored at −80 °C. The protein content was determined using Bradford reagent (VWR International, Darmstadt, Germany) and Pierce BCA (bicinchoninic acid) protein assay kits (Thermo Fisher Scientific, Waltham, MA, USA) for membrane fractions of B. subtilis and E. faecalis, respectively.
(§3) Each dilution was combined with B. subtilis (30 µg) or E. faecalis (15 µg) extracted membrane fractions. As reference samples, membrane fractions incubated with only PBS were prepared. Reaction mixtures were incubated for 20 min at 37 °C while shaking at 400 rpm. Next, Bocillin FL penicillin (Thermo Fisher Scientific, Waltham, MA, USA) was added to obtain a final concentration of 20 µM in the mixture. Samples were incubated for 30 min at 37 °C while shaking at 400 rpm. To denature the samples, 4× Laemmli sample buffer (Bio‐Rad Laboratories, Feldkirchen, Germany) was added, and the samples incubated for 10 min at 70 °C. Afterwards, the samples were centrifuged for 5 min at 13 000 rpm. Samples were separated by SDS‐PAGE using a 10% Tris‐glycine gel for 100 min at 180 V. The bands were visualized using a Typhoon FLA 9500 imager (GE Healthcare, Chicago, IL, USA) with excitation at 473 nm. The gel images were analyzed using ImageJ software. Brightness and contrast were adjusted to improve the signal‐to‐noise ratio and the background signal was subtracted over the whole image. Next, integrated density values of the gel bands were measured and Bocillin FL penicillin labeling of each PBP in antibiotic‐treated samples were set in proportion to the reference sample. IC50 values were calculated with GraphPad Prism software (version 8.0.1) using inhibitor versus normalized response variable slope and least‐squares fit. […] The mean was calculated using the IC50 values of at least two independent assays for each antibiotic.

The next assay deals with PBP5. The assay is described as above. It is filed as binding. Conditions: PBPs from vancomycin‐resistant E. faecalis; compared with parent; at concentrations considerably higher than MICs. As to the method: as §2, §3
Assay [1] relates to K. pneumoniae Tü20‐036 (clinical isolate). Description: microbe, parasite or virus in culture. It is filed as cell-based. Conditions: Tü20‐036 (clinical isolate, 20 h). As to the method:
as §1

For assay [2], the system named is C. freundii Tü21‐052 (clinical isolate). Nature of the assay: microbe, parasite or virus in culture. It is filed as cell-based. As to conditions: 20 h. Here is the method: as §1
In assay [3] the test system is A. pittii Tü21‐041 (clinical isolate). Nature of the assay: microbe, parasite or virus in culture. Conditions: 20 h. It is filed as cell-based. Here is the method:
as §1

For assay [4], the system named is E. coli Tü20‐025 (clinical isolate). Description: microbe, parasite or virus in culture. It is filed as cell-based. As to conditions: Tü20‐025 (clinical isolate, 20 h). As to the method: as §1
In assay [5] the test system is E. casseliflavus ATCC 700327. Description: microbe, parasite or virus in culture. As to conditions: ATCC 700327, 20 h. It is filed as cell-based. As to the method:
as §1

A further assay concerns E. faecalis ATCC 29212. Description: microbe, parasite or virus in culture. It is filed as cell-based. Conditions: ATCC 29212, 20 h. Here is the method: as §1
For the next assay, the system named is A. bohemicus DSM 100419. Description: MIC by broth microdilution. It is filed as cell-based. Conditions: median (n = 3). Here is the method: as §1
For orientation: Broth dilution looks for growth in wells or tubes with falling amounts of substance.

For the next assay, the system named is PBPs of B. subtilis. Nature of the assay: Gel‐based PBP affinity assay (Bocillin FL competition). It is filed as binding. Conditions: at the concentrations tested (0.016–250 µM). As to the method:
as §2, §3

T1 sequence (P54488 whole entry): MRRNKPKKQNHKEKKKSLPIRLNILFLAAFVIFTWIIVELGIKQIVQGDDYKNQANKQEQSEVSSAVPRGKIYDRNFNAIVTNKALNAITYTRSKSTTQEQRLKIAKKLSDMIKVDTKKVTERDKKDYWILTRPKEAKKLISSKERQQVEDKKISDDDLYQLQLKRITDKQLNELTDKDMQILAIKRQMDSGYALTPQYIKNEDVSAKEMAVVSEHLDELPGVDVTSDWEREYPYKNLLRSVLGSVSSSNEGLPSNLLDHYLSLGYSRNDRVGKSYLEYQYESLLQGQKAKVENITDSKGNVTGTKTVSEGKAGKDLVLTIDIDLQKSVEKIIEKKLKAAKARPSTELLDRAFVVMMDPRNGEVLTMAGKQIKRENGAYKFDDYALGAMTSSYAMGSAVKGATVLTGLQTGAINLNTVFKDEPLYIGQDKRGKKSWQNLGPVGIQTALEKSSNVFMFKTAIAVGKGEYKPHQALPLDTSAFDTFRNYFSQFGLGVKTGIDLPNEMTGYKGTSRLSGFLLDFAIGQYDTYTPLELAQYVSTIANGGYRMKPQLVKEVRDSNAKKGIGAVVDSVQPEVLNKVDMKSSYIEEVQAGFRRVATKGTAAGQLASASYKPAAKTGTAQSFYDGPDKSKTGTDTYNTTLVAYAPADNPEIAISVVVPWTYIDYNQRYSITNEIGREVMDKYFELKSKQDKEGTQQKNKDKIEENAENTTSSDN

As for `C[C@H]1[C@H](NC(=O)/C(=N\OC(C)(C)C(=O)NCCCCCCN2C(=O)CC(SC[C@H](NC(=O)[C@H](CCCNC(=N)N)NC(=O)[C@H](CCCNC(=N)N)NC(=O)[C@H](CCCNC(=N)N)NC(=O)[C@H](CCCNC(=N)N)NC(=O)[C@H](CCCNC(=N)N)NC(=O)[C@@H](N)CCCNC(=N)N)C(N)=O)C2=O)c2csc(N)n2)C(=O)N1S(=O)(=O)O` (some centres unmarked) [AZT-R6], in the assay with B. subtilis DSM 10, the MIC amounted to 0.06 µg/mL. In addition, the “affinity to PBP2A” value on PBP2A is on record as “higher affinity”. In the assay on PBP5, the “binding to PBP5” value was “slightly improved binding”.
In the case of `N=C(N)NCCC[C@H](NC(=O)[C@H](CCCNC(=N)N)NC(=O)[C@H](CCCNC(=N)N)NC(=O)[C@H](CCCNC(=N)N)NC(=O)[C@H](CCCNC(=N)N)NC(=O)[C@@H](N)CCCNC(=N)N)C(=O)N[C@@H](CSC1CC(=O)N(CCCCCCN)C1=O)C(N)=O` (some centres unmarked) [BB linker‐R6], the MIC (in assay [1]; in [2]; in assay [3]; in the assay with B. subtilis DSM 10; in assay [4]; in assay [5]) was greater than 64 µg/mL each time. For the same compound, in the assay on E. faecalis ATCC 29212, the MIC was greater than 64 µg/mL.
Take `CC(C)(O/N=C(\C(=O)N[C@@H]1C(=O)N2C(C(=O)[O-])=C(C[n+]3ccccc3)CS[C@H]12)c1csc(N)n1)C(=O)NCCCCCCN1C(=O)CC(SC[C@H](NC(=O)[C@H](CCCCN)NC(=O)[C@H](CCCCN)NC(=O)[C@H](CCCCN)NC(=O)[C@H](CCCCN)NC(=O)[C@H](CCCCN)NC(=O)[C@H](CCCCN)NC(=O)[C@H](CCCCN)NC(=O)[C@H](CCCCN)NC(=O)[C@@H](N)CCCCN)C(N)=O)C1=O` (some centres unmarked) [CTZ-K9] (H-KKKKKKKKKC(X1)-NH2; N-terminus and C-terminus assumed): in the assay on A. bohemicus DSM 100419, the “antimicrobial activity (rank among CTZ–peptide conjugates)” value was “most potent conjugates”.
For `C[C@@H](O)[C@H]1C(=O)N2C(C(=O)O)=C(S[C@H]3C[C@@H](C(=O)Nc4cccc(C(=O)O)c4)N(C(=O)C4CCC(CN5C(=O)CC(SC[C@H](NC(=O)[C@H](CCCNC(=N)N)NC(=O)[C@H](CCCNC(=N)N)NC(=O)[C@H](CCCNC(=N)N)NC(=O)[C@H](CCCNC(=N)N)NC(=O)[C@H](CCCNC(=N)N)NC(=O)[C@@H](N)CCCNC(=N)N)C(N)=O)C5=O)CC4)C3)[C@H](C)[C@H]12` (some centres unmarked) [ERT-R6C], the MIC in the assay on B. subtilis DSM 10 is less than 0.02 µg/mL. For the same compound, the “affinity to PBP2A” value at PBP2A was “higher affinity”.
Take `N=C(N)NCCC[C@H](NC(=O)[C@H](CCCNC(=N)N)NC(=O)[C@H](CCCNC(=N)N)NC(=O)[C@H](CCCNC(=N)N)NC(=O)[C@H](CCCNC(=N)N)NC(=O)[C@@H](N)CCCNC(=N)N)C(=O)N[C@@H](CS)C(N)=O` [R6C]: the MIC (with B. subtilis DSM 10; in assay [5]; in the assay with E. faecalis ATCC 29212) was greater than 64 µg/mL each time. Moreover, the “binding to the PBPs of B. subtilis” value with PBPs of B. subtilis was “not observed”.
